Numbering of substitutions follows the chain as printed. Read-outs that look alike come from different tables or passages of the source.
Legend:
[1] = system: MV-4-11; assay: Proliferation assay (resazurin/MTT), MV-4-11; format: cell-based; conditions: Homo sapiens, MV4-11, read-out: 72 h Growth inhibition GI50, MV-4-11 cells
[2] = system: U937; assay: Proliferation assay (resazurin/MTT), U937; format: cell-based; conditions: Homo sapiens, U-937, read-out: 72 h Growth inhibition GI50, U937 cells
[3] = molecular target: T1, CDK2E1 (Homo sapiens, UniProt P24941); assay: biochemical
[4] = molecular target: CDK4/D1 (Homo sapiens, UniProt P11802); assay: ADP Glo kinase assay, CDK4/D1; format: biochemical; conditions: CDK4D1; for remaining activity at 1 µM: compound at 1 μM (values marked *), read-out: residual enzymatic activity (%) at 1 μM*; for Ki: apparent Ki calculated from Km (ATP) and IC50, read-out: CDK inhibition Ki
Sequence of CDK4/D1 (P11802 whole entry, species assumed): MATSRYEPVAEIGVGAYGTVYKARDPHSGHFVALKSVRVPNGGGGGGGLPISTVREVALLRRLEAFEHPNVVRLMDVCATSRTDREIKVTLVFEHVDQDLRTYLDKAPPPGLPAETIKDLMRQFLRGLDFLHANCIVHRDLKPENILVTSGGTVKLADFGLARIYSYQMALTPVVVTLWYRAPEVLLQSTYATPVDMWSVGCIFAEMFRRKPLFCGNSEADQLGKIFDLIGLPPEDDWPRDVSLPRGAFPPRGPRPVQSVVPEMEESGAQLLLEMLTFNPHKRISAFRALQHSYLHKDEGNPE
Sequence of CDK4/D1 (P24385 whole entry partner, species assumed): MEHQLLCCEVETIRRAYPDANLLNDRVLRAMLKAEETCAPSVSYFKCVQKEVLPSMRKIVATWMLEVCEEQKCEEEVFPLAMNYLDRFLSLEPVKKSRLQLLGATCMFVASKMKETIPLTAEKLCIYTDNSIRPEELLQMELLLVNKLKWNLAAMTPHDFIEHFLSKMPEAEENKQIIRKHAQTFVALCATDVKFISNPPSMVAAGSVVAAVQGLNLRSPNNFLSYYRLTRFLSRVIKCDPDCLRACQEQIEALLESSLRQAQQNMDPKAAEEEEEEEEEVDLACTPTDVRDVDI

[5] = molecular target: CDK6/D3 (Homo sapiens, UniProt Q00534); assay: ADP Glo kinase assay, CDK6/D3; format: biochemical; conditions: CDK6D3; for remaining activity at 1 µM: compound at 1 μM (values marked *), read-out: residual enzymatic activity (%) at 1 μM*; for Ki: apparent Ki calculated from Km (ATP) and IC50, read-out: CDK inhibition Ki; for remaining activity at 10 µM: compound at 10 μM, read-out: residual enzymatic activity (%) at 10 μM
Sequence of CDK6/D3 (Q00534 whole entry, species assumed): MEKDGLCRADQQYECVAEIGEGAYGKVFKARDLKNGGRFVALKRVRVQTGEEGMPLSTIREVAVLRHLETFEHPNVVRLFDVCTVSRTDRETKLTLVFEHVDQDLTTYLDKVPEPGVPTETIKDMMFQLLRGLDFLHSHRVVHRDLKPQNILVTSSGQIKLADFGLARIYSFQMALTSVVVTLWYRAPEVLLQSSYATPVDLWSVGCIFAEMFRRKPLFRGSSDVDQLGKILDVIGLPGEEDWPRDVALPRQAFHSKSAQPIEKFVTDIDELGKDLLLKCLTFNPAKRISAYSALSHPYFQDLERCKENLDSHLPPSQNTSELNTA
Sequence of CDK6/D3 (P30281 whole entry partner, species assumed): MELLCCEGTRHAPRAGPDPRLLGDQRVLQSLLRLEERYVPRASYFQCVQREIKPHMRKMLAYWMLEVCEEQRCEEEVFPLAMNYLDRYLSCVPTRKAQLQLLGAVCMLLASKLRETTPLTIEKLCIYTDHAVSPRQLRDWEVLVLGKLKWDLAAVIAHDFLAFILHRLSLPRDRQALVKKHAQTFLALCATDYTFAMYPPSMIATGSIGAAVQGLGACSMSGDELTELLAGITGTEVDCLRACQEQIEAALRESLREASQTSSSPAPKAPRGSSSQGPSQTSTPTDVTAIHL

[6] = molecular target: CDK9/CyclinT1 (Homo sapiens, UniProt P50750); assay: ADP Glo kinase assay, CDK9/CyclinT1; format: biochemical; conditions: CDK9T1; apparent Ki calculated from Km (ATP) and IC50; read-out: CDK inhibition Ki
Sequence of CDK9/CyclinT1 (P50750 whole entry, species assumed): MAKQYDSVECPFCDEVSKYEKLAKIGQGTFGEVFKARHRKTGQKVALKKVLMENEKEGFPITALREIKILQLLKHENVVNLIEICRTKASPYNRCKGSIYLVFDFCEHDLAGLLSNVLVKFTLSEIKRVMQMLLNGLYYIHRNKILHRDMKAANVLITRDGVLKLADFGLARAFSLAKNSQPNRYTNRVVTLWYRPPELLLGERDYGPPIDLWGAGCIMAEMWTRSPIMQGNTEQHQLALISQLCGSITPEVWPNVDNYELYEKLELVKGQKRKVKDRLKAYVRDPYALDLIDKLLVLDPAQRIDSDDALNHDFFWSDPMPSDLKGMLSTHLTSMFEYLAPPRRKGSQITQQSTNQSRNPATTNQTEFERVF
Sequence of CDK9/CyclinT1 (O60563 whole entry partner, species assumed): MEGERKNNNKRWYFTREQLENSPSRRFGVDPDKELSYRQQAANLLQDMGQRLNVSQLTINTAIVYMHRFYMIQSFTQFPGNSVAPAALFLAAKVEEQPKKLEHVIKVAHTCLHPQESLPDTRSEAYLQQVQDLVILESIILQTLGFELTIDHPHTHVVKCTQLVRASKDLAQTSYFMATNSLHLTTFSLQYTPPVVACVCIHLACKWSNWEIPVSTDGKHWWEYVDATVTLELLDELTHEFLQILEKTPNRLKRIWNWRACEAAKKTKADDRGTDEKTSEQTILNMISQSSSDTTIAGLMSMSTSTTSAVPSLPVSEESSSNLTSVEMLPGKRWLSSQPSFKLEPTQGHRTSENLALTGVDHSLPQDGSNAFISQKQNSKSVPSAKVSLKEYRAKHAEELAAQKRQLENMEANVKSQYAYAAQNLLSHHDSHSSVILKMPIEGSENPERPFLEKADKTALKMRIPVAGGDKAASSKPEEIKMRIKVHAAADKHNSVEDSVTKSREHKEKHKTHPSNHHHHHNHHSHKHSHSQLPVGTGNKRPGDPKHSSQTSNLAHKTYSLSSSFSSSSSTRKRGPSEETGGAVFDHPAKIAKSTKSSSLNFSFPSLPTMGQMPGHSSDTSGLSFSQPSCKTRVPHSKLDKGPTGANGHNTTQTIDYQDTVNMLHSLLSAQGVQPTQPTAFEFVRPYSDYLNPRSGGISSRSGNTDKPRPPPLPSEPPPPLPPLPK
Protocol: Inhibition of FLT3(WT), FLT3(ITD) and FLT3(D835Y) and CDKs were determined using ADP Glo Kinase assays (Promega Corporation, Madison, WI, USA). […] Similarly, kinase reaction for CDK4/D1 and CDK6/D3 was performed with reaction buffer (40 nM Tris base pH 7.5, 20 mM MgCl2, 0.4 mM DTT), 0.1 mg/ml BSA and RB-CTF substrate (retinoblastoma protein1 C-terminal fraction). For CDK9/CyclinT1, the kinase reaction was performed with the standard assay buffer and Kinase Dilution Buffer and RBER-IRStide substrate. Half-maximal inhibition (IC50) values were calculated using a 4-parameter logistic non-linear regression model with Graphpad prism (Version 6.0). Apparent inhibition constants (Ki) values were calculated from Km (ATP) and IC50 values for the respective kinases.

[7] = molecular target: T2, CDK1B (Homo sapiens, UniProt P06493)
T2 sequence (P06493 whole entry): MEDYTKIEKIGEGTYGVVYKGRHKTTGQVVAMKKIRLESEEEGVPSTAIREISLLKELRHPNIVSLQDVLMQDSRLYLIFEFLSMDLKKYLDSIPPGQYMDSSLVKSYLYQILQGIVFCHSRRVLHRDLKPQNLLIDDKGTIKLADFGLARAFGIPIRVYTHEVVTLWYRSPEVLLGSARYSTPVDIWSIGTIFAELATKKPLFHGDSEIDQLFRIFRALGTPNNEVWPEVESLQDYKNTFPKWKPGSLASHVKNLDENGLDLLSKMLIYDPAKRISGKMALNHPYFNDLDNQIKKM
T2 sequence (P14635 whole entry partner): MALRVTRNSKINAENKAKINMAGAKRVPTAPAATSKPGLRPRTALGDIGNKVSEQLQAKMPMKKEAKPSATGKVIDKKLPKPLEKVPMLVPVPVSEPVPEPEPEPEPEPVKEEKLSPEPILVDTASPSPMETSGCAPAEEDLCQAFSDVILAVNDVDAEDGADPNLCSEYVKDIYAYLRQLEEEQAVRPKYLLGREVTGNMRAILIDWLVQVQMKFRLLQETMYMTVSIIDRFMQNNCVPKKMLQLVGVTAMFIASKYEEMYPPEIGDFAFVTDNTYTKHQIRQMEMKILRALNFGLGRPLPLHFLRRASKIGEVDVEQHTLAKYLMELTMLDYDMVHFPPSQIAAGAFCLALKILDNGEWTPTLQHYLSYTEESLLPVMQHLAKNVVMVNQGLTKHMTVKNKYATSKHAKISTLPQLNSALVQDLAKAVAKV

[8] = molecular target: T1, CDK2E1; conditions: 1 µM
[9] = molecular target: T3, CDK7HMAT1 (Homo sapiens, UniProt P50613); assay: biochemical;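 further: kinase activity measured with an ADP-Glo luminescent kinase assay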
T3 sequence (P50613 whole entry): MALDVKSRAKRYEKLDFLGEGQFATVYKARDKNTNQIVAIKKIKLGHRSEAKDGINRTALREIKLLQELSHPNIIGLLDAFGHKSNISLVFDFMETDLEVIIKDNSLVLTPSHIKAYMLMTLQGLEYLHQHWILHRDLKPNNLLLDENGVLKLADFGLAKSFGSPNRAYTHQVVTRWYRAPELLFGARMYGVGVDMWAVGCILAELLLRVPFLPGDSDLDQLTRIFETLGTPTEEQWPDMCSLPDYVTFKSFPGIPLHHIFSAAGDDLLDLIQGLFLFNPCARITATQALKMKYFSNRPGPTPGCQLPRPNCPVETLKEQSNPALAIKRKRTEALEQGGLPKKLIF
T3 sequence (P51946 whole entry partner): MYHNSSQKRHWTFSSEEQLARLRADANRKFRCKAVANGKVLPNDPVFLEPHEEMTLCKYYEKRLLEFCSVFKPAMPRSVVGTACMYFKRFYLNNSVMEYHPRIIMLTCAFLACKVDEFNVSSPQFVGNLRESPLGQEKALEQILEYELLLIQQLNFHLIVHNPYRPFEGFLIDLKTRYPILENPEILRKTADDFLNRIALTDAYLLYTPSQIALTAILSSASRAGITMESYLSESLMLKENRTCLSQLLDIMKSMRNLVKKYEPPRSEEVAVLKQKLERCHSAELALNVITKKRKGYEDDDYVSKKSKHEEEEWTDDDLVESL
T3 sequence (P51948 whole entry partner): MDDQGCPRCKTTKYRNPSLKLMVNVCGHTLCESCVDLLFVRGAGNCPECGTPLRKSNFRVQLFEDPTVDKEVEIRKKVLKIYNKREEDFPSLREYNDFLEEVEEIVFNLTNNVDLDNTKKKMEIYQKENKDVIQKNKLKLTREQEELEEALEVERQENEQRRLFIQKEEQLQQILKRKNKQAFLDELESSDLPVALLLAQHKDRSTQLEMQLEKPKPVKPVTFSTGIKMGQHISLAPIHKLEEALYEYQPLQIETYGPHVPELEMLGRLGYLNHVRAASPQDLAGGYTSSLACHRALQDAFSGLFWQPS
Protocol: (§1) Inhibition of FLT3(WT), FLT3(ITD) and FLT3(D835Y) and CDKs were determined using ADP Glo Kinase assays (Promega Corporation, Madison, WI, USA). […] The kinase reactions are run for an optimised time period (FLT3-WT: 120 min, FLT3-ITD: 80 min, FLT3-D835Y: 100 min) at room temperature and then the reaction was stopped by adding 5 μL of ADP Glo reagent. […] Positive and negative controls were performed in 0.5% DMSO in the presence and absence of each FLT3 kinase, respectively. […] Half-maximal inhibition (IC50) values were calculated using a 4-parameter logistic non-linear regression model with Graphpad prism (Version 6.0). Apparent inhibition constants (Ki) values were calculated from Km (ATP) and IC50 values for the respective kinases.

[10] = molecular target: T4, FLT3(ITD) (Homo sapiens, UniProt P36888); assay: ADP Glo kinase assay, FLT3(ITD); format: biochemical; conditions: apparent Ki calculated from Km (ATP) and IC50, read-out: FLT3 inhibition Ki
T4 sequence (P36888 1-993): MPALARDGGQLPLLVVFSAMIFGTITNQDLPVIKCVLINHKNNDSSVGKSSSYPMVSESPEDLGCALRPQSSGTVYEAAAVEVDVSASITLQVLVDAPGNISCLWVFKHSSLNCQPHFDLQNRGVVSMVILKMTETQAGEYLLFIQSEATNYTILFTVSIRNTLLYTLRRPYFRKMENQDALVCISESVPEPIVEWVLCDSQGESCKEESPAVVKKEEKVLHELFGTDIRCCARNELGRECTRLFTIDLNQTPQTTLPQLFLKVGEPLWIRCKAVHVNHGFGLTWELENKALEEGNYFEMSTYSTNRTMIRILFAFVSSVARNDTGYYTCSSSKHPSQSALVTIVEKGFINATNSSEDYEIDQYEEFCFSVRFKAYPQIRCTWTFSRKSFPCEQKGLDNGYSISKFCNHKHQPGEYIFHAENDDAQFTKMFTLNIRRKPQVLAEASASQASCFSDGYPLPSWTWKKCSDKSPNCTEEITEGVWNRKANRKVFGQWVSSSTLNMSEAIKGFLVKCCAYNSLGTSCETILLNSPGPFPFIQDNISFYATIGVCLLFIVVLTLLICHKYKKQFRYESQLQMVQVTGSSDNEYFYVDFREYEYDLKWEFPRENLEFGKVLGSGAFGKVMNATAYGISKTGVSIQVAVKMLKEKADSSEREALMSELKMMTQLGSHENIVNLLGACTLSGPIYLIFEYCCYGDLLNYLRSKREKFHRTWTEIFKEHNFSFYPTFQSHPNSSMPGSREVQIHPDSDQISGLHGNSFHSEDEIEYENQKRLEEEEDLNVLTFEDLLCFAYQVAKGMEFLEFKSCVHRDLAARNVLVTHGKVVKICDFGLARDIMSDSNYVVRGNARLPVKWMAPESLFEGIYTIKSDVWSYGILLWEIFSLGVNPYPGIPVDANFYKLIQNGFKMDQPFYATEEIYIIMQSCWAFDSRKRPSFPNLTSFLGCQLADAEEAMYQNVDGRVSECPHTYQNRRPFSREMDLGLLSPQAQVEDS
Protocol: as §1

[11] = molecular target: T5, FLT3(WT) (Homo sapiens, UniProt P36888); assay: ADP Glo kinase assay, FLT3(WT); format: biochemical; conditions: compound at 1 μM, read-out: residual enzymatic activity (%) at 1 μM
T5 sequence (P36888 27-993): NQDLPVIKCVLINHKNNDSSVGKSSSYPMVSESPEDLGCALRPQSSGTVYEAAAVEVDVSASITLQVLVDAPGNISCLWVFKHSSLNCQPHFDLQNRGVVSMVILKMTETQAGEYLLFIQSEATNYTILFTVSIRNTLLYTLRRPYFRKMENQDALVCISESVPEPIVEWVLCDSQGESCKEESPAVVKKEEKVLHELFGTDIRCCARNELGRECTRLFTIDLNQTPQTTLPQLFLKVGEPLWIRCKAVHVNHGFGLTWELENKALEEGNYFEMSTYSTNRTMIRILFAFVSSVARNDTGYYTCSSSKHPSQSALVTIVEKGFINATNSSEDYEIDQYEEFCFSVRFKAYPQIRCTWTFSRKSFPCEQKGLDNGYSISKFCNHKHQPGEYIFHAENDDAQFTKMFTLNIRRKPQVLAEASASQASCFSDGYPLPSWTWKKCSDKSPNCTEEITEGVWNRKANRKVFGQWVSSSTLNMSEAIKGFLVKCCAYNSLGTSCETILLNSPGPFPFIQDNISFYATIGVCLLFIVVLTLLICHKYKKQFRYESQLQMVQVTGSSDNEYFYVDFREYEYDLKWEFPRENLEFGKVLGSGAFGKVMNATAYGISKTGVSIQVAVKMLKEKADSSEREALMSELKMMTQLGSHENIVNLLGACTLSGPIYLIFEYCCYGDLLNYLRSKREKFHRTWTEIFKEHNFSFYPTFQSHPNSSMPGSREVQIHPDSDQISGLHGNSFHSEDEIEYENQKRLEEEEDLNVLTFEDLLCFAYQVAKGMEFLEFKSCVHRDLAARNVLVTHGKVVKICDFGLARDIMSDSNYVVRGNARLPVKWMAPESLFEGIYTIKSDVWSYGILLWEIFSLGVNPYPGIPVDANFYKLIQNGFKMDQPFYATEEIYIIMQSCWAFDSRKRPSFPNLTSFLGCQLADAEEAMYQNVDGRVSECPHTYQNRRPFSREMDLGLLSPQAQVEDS
Protocol: as §1

[12] = molecular target: T6, FLT3(D835Y) (Homo sapiens, UniProt P36888, D835Y); assay: ADP Glo kinase assay, FLT3(D835Y); format: biochemical; conditions: apparent Ki calculated from Km (ATP) and IC50, read-out: FLT3 inhibition Ki
T6 sequence (P36888 27-993 D835Y): T5 sequence (P36888 27-993) with D809Y
Protocol: as §1

[13] = molecular target: T2, CDK1B; assay: biochemical
[14] = molecular target: T3, CDK7HMAT1; conditions: 10 µM
Protocol: as §1

SMILES	GI50 [1]	GI50 [2]	Ki [3]	remaining activity at 1 µM [4]	remaining activity at 1 µM [5]	Ki [6]	activity ([7]; 1 µM)	activity [8]	Ki [9]	Ki [10]	Ki [4]	Ki [5]	remaining activity at 1 µM [11]	Ki [12]	Ki [13]	activity [14]	remaining activity at 10 µM ([4]; compound at 10 μM, read-out: residual enzymatic activity (%) at 10 μM)	remaining activity at 10 µM [5]	activity ([7]; 10 µM)
Fc1ccc(Nc2nccc(-c3cnc4ccccn34)n2)nc1 [Cmpd 51, N-(5-Fluoropyridin-2-yl)-4-(imidazo[1,2-a]pyridin-3-yl)pyrimidin-2-amine]	0.072 µM	0.35 µM	0.116 µM																
CC(=O)N1CCN(c2ccc(Nc3nccc(-c4cnc5ccc(-c6ccoc6)cn45)n3)nc2)CC1 [Cmpd 25, 1-(4-(6-((4-(6-(Furan-3-yl)imidazo[1,2-a]pyridin-3-yl)pyrimidin-2-yl)amino)pyridin-3-yl)piperazin-1-yl)ethan-1-one]	0.005 µM	0.765 µM		75%	52%	0.071 µM	95%	40%	0.186 µM										
CC(=O)N1CCN(c2ccc(Nc3ncc(F)c(-c4cnc5ccc(C)cn45)n3)nc2)CC1 [Cmpd 31, 1-(4-(6-((5-Fluoro-4-(6-methylimidazo[1,2-a]pyridin-3-yl)pyrimidin-2-yl)amino)pyridin-3-yl)piperazin-1-yl)ethan-1-one]	0.005 µM	19.1 µM	0.301 µM	37%	38%	0.308 µM	50%												
CN1CCN(c2ccc(Nc3nccc(-c4cnc5ccc(-c6cn[nH]c6)cn45)n3)nc2)CC1 [Cmpd 67, 4-(6-(1H-Pyrazol-4-yl)imidazo[1,2-a]pyridin-3-yl)-N-(5-(4-methylpiperazin-1-yl)pyridin-2-yl)pyrimidin-2-amine]	0.017 µM	0.018 µM	0.197 µM			0.041 µM				0.011 µM									
CN1CCN(c2ccc(Nc3nccc(-c4cnc5ccccn45)n3)nc2)CC1 [Cmpd 2, 4-(Imidazo[1,2-a]pyridin-3-yl)-N-(5-(4-methylpiperazin-1-yl)pyridin-2-yl)pyrimidin-2-amine]	0.035 µM	0.504 µM				0.085 µM			1.7 µM	0.235 µM	0.155 µM	1.05 µM	33%	0.049 µM	1.99 µM				
c1ccc(Nc2nccc(-c3cnc4ccccn34)n2)nc1 [Cmpd 7, 4-(Imidazo[1,2-a]pyridin-3-yl)-N-(pyridin-2-yl)pyrimidin-2-amine]	0.124 µM	0.512 µM	0.084 µM			0.041 µM				0.015 µM	0.218 µM	0.37 µM	34%	0.017 µM	0.148 µM	43%			
CC(=O)N1CCN(c2ccc(Nc3nccc(-c4cnc5ccc(-c6cn[nH]c6)cn45)n3)nc2)CC1 [Cmpd 24, 1-(4-(6-((4-(6-(1H-Pyrazol-4-yl)imidazo[1,2-a]pyridin-3-yl)pyrimidin-2-yl)amino)pyridin-3-yl)piperazin-1-yl)ethan-1-one]	0.025 µM	0.466 µM				0.125 µM		24%	1.19 µM								66%	61%	35%
CC(=O)N1CCN(c2ccc(Nc3nccc(-c4cnc5ccc(-c6cccs6)cn45)n3)nc2)CC1 [Cmpd 17, 1-(4-(6-((4-(6-(Thiophen-2-yl)imidazo[1,2-a]pyridin-3-yl)pyrimidin-2-yl)amino)pyridin-3-yl)piperazin-1-yl)ethan-1-one]	0.002 µM	0.69 µM				0.427 µM		52%	0.148 µM		0.34 µM				> 0.5 µM			76%	
c1ccn2c(-c3ccnc(Nc4ccc(N5CCNCC5)cn4)n3)cnc2c1 [Cmpd 1, 4-(Imidazo[1,2-a]pyridin-3-yl)-N-(5-(piperazin-1-yl)pyridin-2-yl)pyrimidin-2-amine]	0.009 µM	0.497 µM				0.037 µM		69%	1.19 µM		0.116 µM	0.9 µM			1.34 µM				

Reference: patent US12398132B2, “Derivatives of 4-(imidazo[1,2-a]pyridin-3-yl)-n-(pyridinyl)pyrimidin-2-amine as therapeutic agents” (AUCENTRA THERAPEUTICS PTY LTD, priority 2019, dated 2025)
